Data as given in ChEMBL document CHEMBL3808275, “Design, synthesis and SARs of novel salicylanilides as potent inhibitors of RANKL-induced osteoclastogenesis and bone resorption” (Eur J Med Chem, 2016).
pIC50: −log10 of the molar value. The source made the active and inactive calls. The calls are words filed in the database; no cut-off is given here.

Legend:
RAW264.7 [1] = test: Inhibition of RANKL-induced osteoclast differentiation in mouse RAW264.7 cells assessed as TRAP-positive multinucleated cells level at 2.5 uM incubated with compound in presence of RANKL for 4 days by TRAP staining based light microscopic analysis relative to RANKL alone; type: functional; set-up: scale not given: the % may be the effect or the level left
RAW264.7 [2] = test: Inhibition of RANKL-induced NFATc1 protein expression in mouse RAW264.7 cells at 1.5 and 2 uM incubated with compound in presence of RANKL for 24 hrs by propidium iodide staining based Leica fluorescent microscopic analysis; type: functional, cell-based
[3] = Cytotoxicity against mouse RAW264.7 cells assessed as survival rate at 2.5 uM after 24 hrs by MTT assay; type: cell-based; settings: read-out: Survival
RAW264.7 [4] = test: Inhibition of RANKL-induced osteoclast differentiation in mouse RAW264.7 cells assessed as reduction in TRAP-positive multinucleated cells level incubated with compound in presence of RANKL for 4 days by TRAP staining based light microscopic analysis relative to RANKL alone; type: functional, cell-based; settings: RAW264.7, 96 h
RAW264.7 [5] = test: Inhibition of RANKL-induced osteoclastic bone resorption in mouse RAW264.7 cells assessed as bone resorption area at 2 uM incubated with compound in presence of RANKL for 4 days by pit formation assay; type: functional; set-up: scale not given: the % may be the effect or the level left
[6] = biological target: T1, Nuclear factor of activated T-cells, cytoplasmic 1 (Mus musculus) (UniProt O88942); test: Inhibition of RANKL-induced NFATc1 translocation in mouse RAW264.7 cells at 2 uM incubated with compound in presence of RANKL for 24 hrs by propidium iodide staining based Leica fluorescent microscopic analysis; type: cell-based
T1 sequence (whole entry): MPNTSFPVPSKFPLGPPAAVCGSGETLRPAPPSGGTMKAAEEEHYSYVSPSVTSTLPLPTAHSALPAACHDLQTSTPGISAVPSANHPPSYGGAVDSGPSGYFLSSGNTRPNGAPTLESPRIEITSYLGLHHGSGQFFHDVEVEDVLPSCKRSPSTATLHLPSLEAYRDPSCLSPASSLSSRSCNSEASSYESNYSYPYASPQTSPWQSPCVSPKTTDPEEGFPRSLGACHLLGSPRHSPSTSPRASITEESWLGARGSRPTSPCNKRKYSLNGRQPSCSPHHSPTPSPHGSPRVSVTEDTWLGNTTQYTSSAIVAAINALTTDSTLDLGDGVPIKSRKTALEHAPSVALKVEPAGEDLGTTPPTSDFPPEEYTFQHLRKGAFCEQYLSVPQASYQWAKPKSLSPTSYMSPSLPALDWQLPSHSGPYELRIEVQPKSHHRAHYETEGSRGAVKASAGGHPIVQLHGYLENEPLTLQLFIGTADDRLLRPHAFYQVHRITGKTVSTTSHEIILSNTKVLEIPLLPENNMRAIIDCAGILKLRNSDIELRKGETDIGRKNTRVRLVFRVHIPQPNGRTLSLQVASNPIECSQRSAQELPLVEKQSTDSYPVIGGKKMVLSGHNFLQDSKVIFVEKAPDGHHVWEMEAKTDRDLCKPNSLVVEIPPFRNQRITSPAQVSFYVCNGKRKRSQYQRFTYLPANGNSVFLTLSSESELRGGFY

RAW264.7 [7] = test: Inhibition of RANKL-induced osteoclastic bone resorption in mouse RAW264.7 cells assessed as bone resorption area at 1 uM incubated with compound in presence of RANKL for 4 days by pit formation assay; type: functional; set-up: scale not given: the % may be the effect or the level left
RAW264.7 [8] = test: Inhibition of RANKL-induced osteoclastic bone resorption in mouse RAW264.7 cells assessed as bone resorption area at 1.5 uM incubated with compound in presence of RANKL for 4 days by pit formation assay; type: functional; set-up: scale not given: the % may be the effect or the level left
RAW264.7 [9] = test: Cytotoxicity against mouse RAW264.7 cells assessed as reduction in cell viability at 5 uM after 24 hrs by MTT assay; type: cell-based; settings: raw264.7, 24 h
[10] = Cytotoxicity against mouse RAW264.7 cells assessed as reduction in cell viability after 24 hrs by MTT assay; type: cell-based
[11] = biological target: T1, Nuclear factor of activated T-cells, cytoplasmic 1 (Mus musculus); test: Inhibition of RANKL-induced NFATc1 translocation in mouse RAW264.7 cells at 1.5 uM incubated with compound in presence of RANKL for 24 hrs by propidium iodide staining based Leica fluorescent microscopic analysis; type: cell-based

SMILES	Activity (RAW264.7 [1]) [%]	inhibition (RAW264.7 [2])	viability at 24 h, 2.5 µM [3] [%]	pIC50 (RAW264.7 [4])	Activity (RAW264.7 [5]) [%]	inhibition [6]	Activity (RAW264.7 [7]) [%]	Activity (RAW264.7 [8]) [%]	Activity (RAW264.7 [9])	CC50 at 24 h [10] [µM]	inhibition [11]
O=c1oc2ccc(F)cc2c(=O)n1-c1ccc(I)cc1F	13.9	Active	102	5.69	16.93	Active	73.07	42.55	Toxic	6	Active
O=C(Nc1ccc(Br)cc1F)c1cc(F)ccc1O	8.7	–	102	5.73	–	–	–	–	Toxic	7.9	–
O=C(Nc1ccc(I)cc1F)c1cc(F)ccc1O	0.1	Active	100	5.80	23.22	Active	–	63.98	Toxic	7.4	Active
O=C(Nc1ccc(Br)cc1F)c1cc(Cl)ccc1O	23.3	–	106	5.67	–	–	–	–	Toxic	7.8	–
O=c1oc2ccc(Cl)cc2c(=O)n1-c1ccc(I)cc1F	19.1	–	95.5	5.69	–	–	–	–	Toxic	6.9	–
O=C(Nc1ccc(Cl)cc1F)c1cc(Cl)ccc1O	15.8	–	109	5.67	–	–	–	–	Toxic	8	–
O=C(Nc1ccc(I)cc1F)c1cc(Cl)ccc1O	2.9	–	108	5.74	–	–	–	–	Toxic	7.6	–
O=c1oc2ccc(Br)cc2c(=O)n1-c1ccc(Br)cc1F	54.9	–	103	–	–	–	–	–	Toxic	7.2	–
O=C(Nc1ccc(I)cc1F)c1cc(Br)ccc1O	16	–	99.6	5.71	–	–	–	–	Toxic	6.4	–
O=C1c2cc(I)ccc2Oc2cc([N+](=O)[O-])ccc2N1c1ccc(I)cc1F	55.7	–	98.9	–	–	–	–	–	Toxic	> 40	–
O=c1oc2ccc(I)cc2c(=O)n1-c1ccc(Cl)cc1F	38	–	117	–	–	–	–	–	Toxic	8.9	–
O=C1c2cc(F)ccc2Oc2cc([N+](=O)[O-])ccc2N1c1ccc(Br)cc1F	88.7	–	98.8	–	–	–	–	–	Toxic	> 40	–
O=C(O)c1cc(I)ccc1O	90.5	–	98.9	–	–	–	–	–	Toxic	> 40	–
O=C1c2cc(Cl)ccc2Oc2cc([N+](=O)[O-])ccc2N1c1ccc(Br)cc1F	77.2	–	100	–	–	–	–	–	Toxic	> 40	–
O=C(Nc1ccc(Br)cc1F)c1cc(Br)ccc1O	33.1	–	99.5	–	–	–	–	–	Toxic	7.8	–
O=C1c2cc(I)ccc2Oc2cc([N+](=O)[O-])ccc2N1c1ccc(Cl)cc1F	75.2	–	94.9	–	–	–	–	–	Toxic	> 40	–
